According to patent publication US5213962A, “Purification, detection and methods of use of protease Nexin-2” (The Regents of the University of California, priority 1992, dated 1993):

System: platelets
Assay: Secretion of PN-2/βAPP from platelets after activation by agonists
Assay type: cell-based
Conditions: freshly washed platelets, 10 minutes
Method: Secretion on PN-2/βAPP from platelets after activation by the agonists collagen or thrombin was studied. Briefly, fresh platelets washed by albumin density gradient centrifugation and gel filtration were incubated for 30 minutes at 37° C. in the absence or presence of the combined metabolic inhibitors antimycin A (15 μg/ml), 2-deoxy-D-glucose (30 mM), and D-gluconic acid δ-lactone (10 mM). The platelets were then placed into a cuvette 37° C. water bath with stirring at 1,200 rpm, and collagen (20 μg/ml or α-thrombin U/ml) was added. After 10 minutes, the samples were centrifuged at 12,000×g for 4 minutes and supernatants were collected. Aliquots were removed and quantitated for PN-2/βAPP by incubation with ^125 I-EGF BP and analysis of complex formation by SDS-PAGE and autoradiography as in Example 15. Autoradiograms were aligned with dried gels; ^125 I-EGF BP:PN-2/βAPP complexes were located, excised and quantitated in a […]. Aliquots were also quantitated for platelet markers as follows: total adenine nucleotide (ADP/ATP) secretion was measured by the method of Homsen et al., Anal. Biochem., 46:489 (1972); low affinity platelet factor 4 (LA-PF4) secretion was quantitated by the method of Rucinski et al., Blood, 53:47 (1979); and cytosolic lactate dehydrogenase (LDH) loss was assessed by the procedure of Wroblewski and Ladue, Proc. Soc. Exper. […]

Row | Substance | secretion of total PN-2/βAPP present in the platelets
1 | collagen | approximately one-half
2 | thrombin | approximately one-half
